Laboratory results reported in PMC5248655 (ACS chemical neuroscience, 2015).
Structures can show the parent of a compound that is named as a salt. Where two headings read alike, the source gives them in different places.

What was measured:
LRP1 [1] = test: Western blot of LRP1 expression in SCHs; assay type: cell-based, rat; details: 48 h treatment; for increase in LRP1 expression: n = 4
C57BL/6 wild-type mice = details: compared to control mice; cited from earlier work
[2] = test system: sandwich-cultured primary rat hepatocytes (SCHs); details: induction of LRP1 and P-gp; cited from earlier work
P-gp [3] = test: Western blot of P-gp expression in SCHs; assay type: cell-based, rat; details: 48 h treatment, vs control cells, n = 4
LRP1 [4] = test: Western blot of LRP1 expression in RBE4 cells; assay type: cell-based, rat; details: 5 µM, 48 h, normalized, vs control, n = 4
P-gp [5] = test: Western blot of P-gp expression in RBE4 cells; assay type: cell-based, rat; details: 5 µM, 48 h, normalized, vs control, n = 4
Aβ40 = details: rat, in vivo
Sprague–Dawley male rats [6] = details: n = 5; for hepatic uptake (extravascular extraction, E) of ^125I-Aβ40: absolute value
Sprague–Dawley male rats [7] = test: TCA precipitation assay of Aβ degradation in treated rats; assay type: in vivo, rat; details: rats treated 26 days, data not shown
Aβ42 = details: rat, in vivo
LRP1 [8] = details: 26 day treatment, Western blot, n = 5
P-gp [9] = test: Western blot of hepatic P-gp expression in treated rats; assay type: in vivo, rat; details: 26 day treatment, n = 5
P-gp [10] = details: 26 day treatment, Western blot, n = 5
LRP1 [11] = test: Western blot of hepatic LRP1 expression in treated rats; assay type: in vivo, rat; details: 26 day treatment, n = 5
Sprague–Dawley male rats [12] = test: Brain efflux index; details: 60 min after intracerebral microinjection

For `Nc1c2c(nc3ccccc13)CCCC2` [tacrine, Tacrine hydrochloride], the “down-regulation of LRP1 expression” value (LRP1 [1]; vs control cells) was 20%.
For `C/C=C(/C=O)[C@@H](CC=O)CC(=O)OCCc1ccc(O)cc1` [oleocanthal], the “increase in brain efflux of exogenously introduced Aβ40” value (C57BL/6 wild-type mice) is given as 29%.
In the case of `CO[C@H]1/C=C/O[C@@]2(C)Oc3c(C)c(O)c4c(O)c(c(/C=N/N5CCN(C)CC5)c(O)c4c3C2=O)NC(=O)/C(C)=C\C=C\[C@H](C)[C@H](O)[C@@H](C)[C@@H](O)[C@@H](C)[C@H](OC(C)=O)[C@@H]1C` [rifampicin], the “effect on biliary clearance of ^125I-Aβ (in words)” value [2] is given as “significantly increased”.
In the case of `COc1ccc2c3c1O[C@H]1C[C@@H](O)C=C[C@@]31CCN(C)C2` [galantamine, Galantamine hydrochloride], the “increase in P-gp expression” value (P-gp [3]) is reported as 1.3 fold and the “increase in LRP1 expression” value (LRP1 [1]; vs control cells) is reported as 1.2 fold.
With `CCN(C)C(=O)Oc1cccc([C@H](C)N(C)C)c1` [rivastigmine, rivastigmine L-tartrate] the “increase in LRP1 expression” value (LRP1 [4]) was “approximately 1.7 fold”, the “increase in P-gp expression” value (P-gp [5]) was “approximately 1.7 fold” and the “reduction of total brain Aβ40 level” value (Aβ40) was “approximately 52%”. For the same compound, the “total Aβ40 level in brain” value (Aβ40) was 1713 ± 260 pmol/g brain tissue, the “increase in P-gp expression” value (P-gp [3]) was 1.3 fold and the “increase in LRP1 expression” value (LRP1 [1]; vs control cells) was 1.7 fold. The “hepatic uptake (extravascular extraction, E) of ^125I-Aβ40” value (Sprague–Dawley male rats [6]; aged rats, 26 day treatment, mean ± SEM) was 64.0 ± 4.9%, the “increase in hepatic uptake of ^125I-Aβ40” value (Sprague–Dawley male rats [6]; aged rats, 26 day treatment, vs vehicle-treated rats of the same age) was 119% and the “hepatic uptake (extravascular extraction, E) of ^125I-Aβ40” value (Sprague–Dawley male rats [6]; young rats, 26 day treatment, mean ± SEM) was 64 ± 3.7%. The “effect on Aβ degradation” value (Sprague–Dawley male rats [7]) was “no effect”, the “reduction of total brain Aβ42 level” value (Aβ42) was “approximately 52%” and the “reduction trend in brain Aβ42 levels (in words)” value (Aβ42) was “not statistically significant”. The “total Aβ42 level in brain” value (Aβ42) was 466 ± 67 pmol/g brain tissue, the “increase in brain LRP1 protein expression” value (LRP1 [8]; aged rats) was 56% and the “increase in brain LRP1 protein expression” value (LRP1 [8]; young rats) was 42%. The “increase in liver P-gp expression” value (P-gp [9]; aged rats) was 81%, the “increase in liver P-gp expression” value (P-gp [9]; young rats) was 47% and the “increase in brain P-gp protein expression” value (P-gp [10]; aged rats) was 20%. The “increase in brain P-gp protein expression” value (P-gp [10]; young rats) was 36%, the “increase in liver LRP1 expression” value (LRP1 [11]; aged rats) was 88% and the “increase in liver LRP1 expression” value (LRP1 [11]; young rats) was 41%.
In the case of ^125I-Aβ40, the “reduction of extravascular extraction (E) in aged compared to young rats” value (Sprague–Dawley male rats [6]; aged (24 months) vs young (4 months) rats) is reported as 44%, the “extravascular extraction or hepatic uptake of ^125I-Aβ40” value (Sprague–Dawley male rats [6]; vehicle-treated young rats, single pass into the portal vein, 18 s, mean ± SEM) is reported as 51.9 ± 2.4% and the “^125I-Aβ40 BEI%” value (Sprague–Dawley male rats [12]; vehicle-treated aged rats (24 months)) is reported as 47%. The “^125I-Aβ40 BEI%” value (Sprague–Dawley male rats [12]; vehicle-treated young rats (4 months)) was 59%.
For `CC12CC3CC(C)(C1)CC(N)(C3)C2` [memantine], the “effect on LRP1 expression (in words)” value (LRP1 [1]) was “no effect”.
